Patent US20090197852A9 (priority 2001, published 2009)
Entries after “also recorded” stand apart in the source; their conditions may differ. Where two headings read alike, the source gives them in different places.

Columns and labels:
leukemia cells = conditions: cited from earlier work
advanced solid tumors = conditions: cited from earlier work
[1] = tested on: lung cancer cells with wild-type Rb; conditions: cited from earlier work
clinical = conditions: human, in vivo; for AUC / AUC(0-t) / Tmax / Cmax: iv; for Cmax: first dose
Procedure: Patients were assessed in 4-week cycles.
PK assessment. PK sampling was obtained during the first treatment cycle only. […] Plasma concentrations were determined by a validated liquid chromatography-mass spectrometry (LC-MS) method.
For patients with a body surface area greater than 2.4 m^2, dosing was calculated using a maximum BSA of 2.4 m^2.
Plasma samples from some of the patients were assayed using a validated good laboratory practice (GLP) compliant analytical method.
All of the patients' plasma samples were analyzed.

[2] = Dose limiting toxicity and adverse events in trial of 17-AAG with trastuzumab; conditions: 450 mg/m^2/single administration of 17-AAG once weekly for four weeks
Procedure: The invention was tested in an open-label, dose escalating clinical trial. […] Metastatic disease, if present, was not progressing so as to required palliative treatment. […] Patients were assessed in 4-week cycles.
Dosing. […] If two or more of six evaluable patients entered in a cohort experienced a DLT then the MTD was exceeded; if the previous dose level produced DLT in no more than 1 out of 6 patients, then this dose was considered the MTD and was used for all subsequent patients entered in the phase 2 portion of the study.

[3] = cited from earlier work
[4] = 80 mg/m^2 dose level, daily x5, cited from earlier work; for Cmax: read-out: plasma Cmax
solid tumors = conditions: cited from earlier work
metastatic melanoma = conditions: cited from earlier work
[5] = tested on: SKBr3 breast cancer cells; conditions: cited from earlier work
breast cancer cells = conditions: cited from earlier work
MEXF 276L melanoma cells = conditions: cited from earlier work
[6] = tested on: solid tumors and lymphomas; conditions: 3 weeks out of a 4 week cycle, cited from earlier work
NSCLC cells = conditions: cited from earlier work
[7] = patients treated at 56 mg/m^2; cited from earlier work
[8] = tested on: colon adenocarcinoma cells; conditions: cited from earlier work
[9] = free base form; cited from earlier work
[10] = cellular assays; cited from earlier work
[11] = population PK analysis; cited from earlier work
[12] = All cohorts combined (225-450 mg/m^2), mean
[13] = Cohort 1, 17-AAG 225 mg/m^2 IV over 120 min with trastuzumab, first dose, mean
[14] = Cohort 2, 17-AAG 300 mg/m^2 IV over 120 min with trastuzumab, first dose, mean
[15] = Cohort 3, 17-AAG 375 mg/m^2 IV over 120 min with trastuzumab, first dose, mean
[16] = Cohort 4, 17-AAG 450 mg/m^2 IV over 120 min with trastuzumab, first dose, mean
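Wherever AUC is given: Open-label dose-escalation clinical trial, plasma drug levels measured by validated LC-MS, sampling during the first 4-week treatment cycle only.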
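Wherever MRT is given: Open-label dose-escalation clinical trial, plasma drug levels measured by validated LC-MS, sampling during the first 4-week treatment cycle only.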
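Wherever Tmax is given: Open-label dose-escalation clinical trial, plasma drug levels measured by validated LC-MS, sampling during the first 4-week treatment cycle only.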
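Wherever Vd is given: Open-label dose-escalation clinical trial, plasma drug levels measured by validated LC-MS, sampling during the first 4-week treatment cycle only.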

Structure (SMILES): C=CCNC1=C2C[C@@H](C)C[C@H](OC)[C@H](O)[C@@H](C)/C=C(\C)[C@H](OC(N)=O)[C@@H](OC)/C=C\C=C(/C)C(=O)NC(=CC1=O)C2=O [17-AAG, 17-allylamino-17-demethoxygeldanamycin]
- effect of exposure on client proteins (leukemia cells): down-regulation of intracellular Bcr-Abl and c-Raf proteins and reduction of Akt kinase activity
- dose at which nausea and vomiting secondary to pancreatitis and grade 3 fatigue were observed (advanced solid tumors; weekly for 3 out of every 4 weeks): 395 mg/m^2
- objective tumor responses (advanced solid tumors; weekly or twice weekly schedules): No objective tumor responses have been observed in this trial to date
- effect of exposure on client proteins [1]: degradation of cdk4, cdk6, and cyclin E
- Clearance (clinical; [12]): 536 mL/min
- Clearance (clinical; All cohorts combined, Median): 497 mL/min
- MRT (clinical; [12]): 4.71 h
- MRT (clinical; All cohorts combined, Median): 4.26 h
- Vd (clinical; Vss, All cohorts combined (225-450 mg/m^2), mean): 147 ± 94.8 L
- Vd (clinical; Vss, All cohorts combined, Median): 128 L
- Vd (clinical; Vz, All cohorts combined (225-450 mg/m^2), mean): 187 ± 156 L
- Vd (clinical; Vz, All cohorts combined, Median): 146 L
- AUC (clinical; 225 mg/m2): 588 ng·h/mL
- AUC(0-t) (clinical; 225 mg/m2): 7950 ng·h/mL
- Tmax (clinical; 225 mg/m2): 1.8 h
- Cmax (clinical; 225 mg/m2, Cmax, Cohort 1, 17-AAG 225 mg/m^2 IV over 120 min with trastuzumab, mean): 3260 ng/mL
- AUC (clinical; 300 mg/m2): 281 ng·h/mL
- AUC(0-t) (clinical; 300 mg/m2): 15900 ng·h/mL
- Tmax (clinical; 300 mg/m2): 1.9 h
- Cmax (clinical; 300 mg/m2, Cmax, Cohort 2, 17-AAG 300 mg/m^2 IV over 120 min with trastuzumab, mean): 4050 ng/mL
- AUC (clinical; 375 mg/m2): 490 ng·h/mL
- AUC(0-t) (clinical; 375 mg/m2): 27500 ng·h/mL
- Tmax (clinical; 375 mg/m2): 1.9 h
- Cmax (clinical; 375 mg/m2, Cmax, Cohort 3, 17-AAG 375 mg/m^2 IV over 120 min with trastuzumab, mean): 9400 ng/mL
- AUC (clinical; 450 mg/m2): 558 ng·h/mL
- AUC(0-t) (clinical; 450 mg/m2): 27900 ng·h/mL
- Tmax (clinical; 450 mg/m2): 2 h
- Cmax (clinical; 450 mg/m2, Cmax, Cohort 4, 17-AAG 450 mg/m^2 IV over 120 min with trastuzumab, mean): 8110 ng/mL
- half-life (clinical; t1/2, All cohorts combined (225-450 mg/m^2), mean): 4.13 ± 2.48 h
- half-life (clinical; t1/2, All cohorts combined, Median): 3.42 h
- DLT [2]: without reaching DLT in any treated patient
- relation between dose and area under the curve (AUC) ([3]; dose levels studied): linear correlation
- mean volume of distribution ([3]; highest dose level 450 mg/m^2): 142.6 L
- Cmax [4]: 2700 nM
- dose limiting toxicity (solid tumors; daily for 5 days every 3 weeks): dose limiting reversible hepatotoxicity
- maximum tolerated dose (MTD) and recommended Phase 2 dose (solid tumors; daily for 5 days every 3 weeks): 40 mg/m^2
- objective tumor responses (solid tumors; doses up to 110 mg/m^2 daily for 5 days every 3 weeks): No objective tumor responses were observed
- complete or partial responses (metastatic melanoma; once weekly): No complete or partial responses were recorded
- dose at which dose limiting toxicity was observed (metastatic melanoma; once weekly, elevation of AST): 450 mg/m^2/week
- stable disease (metastatic melanoma; patients treated at 320-450 mg/m^2): two showed radiologically documented long term stable disease
- effect of exposure on client proteins [5]: depletion of erbB2 and destabilization of Raf-1 and mutant p53
- effect of exposure on client proteins (breast cancer cells): depletion of steroid receptors
- effect of exposure on client proteins (MEXF 276L melanoma cells): depletion of Hsp90 and down-regulation of Raf-1 and erbB2
- MTD ([6]; weekly 17-AAG): 308 mg/m^2
- objective tumor responses ([6]; weekly): No objective tumor responses have been observed to date in this trial
- effect of exposure on client proteins (NSCLC cells): depletion of erbB1 and erbB2 levels
- Clearance [7]: 19.9 L/h/m^2
- Vz [7]: 93 L/m^2
- average AUC [7]: 6,708 nM*h
- effect of exposure on client proteins [8]: depletion of Raf-1, c-Akt, and Erk1/2
- MRT (All cohorts combined, Max): 11.44 h
- Vss (All cohorts combined, Max): 308.74 L/m^2
- t1/2 (All cohorts combined, Max): 11.42 h
- MRT (All cohorts combined, Min): 2.44 h
- t1/2 (All cohorts combined, Min): 1.33 h
- AUCext [13]: 7.1%
- AUCtotal [13]: 8,539.3 ng/mL*h
- AUMCtotal [13]: 29,168 ng/mL*(h^2)
- Cmax [13]: 3,257.5 ng/mL
- Lz [13]: 0.3804 h⁻¹
- AUCext [14]: 1.6%
- AUCtotal [14]: 16,163 ng/mL*h
- AUMCtotal [14]: 107,072 ng/mL*(h^2)
- Lz [14]: 0.1637 h⁻¹
- AUCext [15]: 2.2%
- AUCtotal [15]: 27,983 ng/mL*h
- AUMCtotal [15]: 124,179 ng/mL*(h^2)
- Lz [15]: 0.1996 h⁻¹
- AUCext [16]: 2.8%
- AUCtotal [16]: 28,425 ng/mL*h
- AUMCtotal [16]: 65,954 ng/mL*(h^2)
- Lz [16]: 0.2037 h⁻¹

Structure (SMILES): C=CCNc1c(O)cc2c(O)c1C[C@@H](C)C[C@H](OC)[C@H](O)[C@@H](C)/C=C(\C)[C@H](OC(N)=O)[C@@H](OC)/C=C\C=C(/C)C(=O)N2 [17-AAGH2, 17-allylamino-18,21-dihydro-17-demethoxygeldanamycin]
- stability to air oxidation [9]: air oxidizes readily

Structure (SMILES): CO[C@H]1/C=C\C=C(/C)C(=O)NC2=CC(=O)C(N)=C(C[C@@H](C)C[C@H](OC)[C@H](O)[C@@H](C)/C=C(\C)[C@@H]1OC(N)=O)C2=O [17-AG, 17-amino-17-demethoxygeldanamycin]
- activity relative to 17-AAG [10]: equipotent; also recorded: activity approximately equal to that of 17-AAG
- t1/2 [4]: 1.75 h
- Cmax [4]: 607 nM
- Clearance [11]: 21.3 L/h
- Clearance [7]: 30.8 L/h/m^2
- Vz [7]: 203 L/m^2
- average AUC [7]: 5,558 nM*h
- average t1/2 [7]: 8.6 h
